Measurements reported in patent US20260209220A1, “SUBSTITUTED TETRAHYDROPYRROLO-PYRIDINONE COMPOUNDS AND THEIR USE IN TREATING MEDICAL CONDITIONS” (Karuna Therapeutics, Inc., priority 2022, published 2026).

Key:
[1] = target: T1, human M4 receptor (Homo sapiens, UniProt P08173); assay: M4 GTPγS PAM assay (CHO-K1 membranes, 35S-GTP binding, with EC20 acetylcholine); format: biochemical; details: with EC20 acetylcholine (40 nM)
T1 construct: expressed in transfected cells; host or cells: CHO-K1 cells (membranes)
T1 sequence (P08173 1-479): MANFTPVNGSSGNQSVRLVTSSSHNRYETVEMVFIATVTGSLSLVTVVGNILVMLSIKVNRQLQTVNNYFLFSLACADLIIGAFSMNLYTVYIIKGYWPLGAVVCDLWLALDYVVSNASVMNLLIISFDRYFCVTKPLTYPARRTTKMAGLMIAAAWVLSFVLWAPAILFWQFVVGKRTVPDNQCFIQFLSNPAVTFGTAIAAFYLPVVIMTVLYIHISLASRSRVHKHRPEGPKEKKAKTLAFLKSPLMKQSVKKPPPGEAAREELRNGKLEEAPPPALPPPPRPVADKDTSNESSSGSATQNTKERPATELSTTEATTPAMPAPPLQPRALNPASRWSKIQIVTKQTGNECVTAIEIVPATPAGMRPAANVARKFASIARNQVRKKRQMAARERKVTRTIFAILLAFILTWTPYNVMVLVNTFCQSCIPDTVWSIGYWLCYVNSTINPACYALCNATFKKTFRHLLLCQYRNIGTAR
Procedure: The M4 GTPγS PAM method was used. Membranes were prepared for GTPgS binding assays from CHO-K1 cells stably expressing human M4 receptor. Briefly, cells were grown in 5-layer cell culture flasks. Cells were washed with 50 mL of PBS and then dissociated with 0.05% trypsin. Dissociated cells were then collected by centrifugation at 650×g for 8 minutes at 4° C. Pellets were washed again in PBS by centrifugation and resuspended in 30 mL of 20 mM HEPES, 10 mM EDTA, pH 7.4. After sitting on ice for 30 min, membranes were collected by centrifugation at 50000×g for 15′ at 4° C., resuspended in 30 mL of 20 mM HEPES, 0.1 mM EDTA, pH 7.4 and collected again by centrifugation. Pellets were then washed twice by centrifugation in 30 mL of 20 mM HEPES, pH 7.4, and stored at −80° C. until the day of the assay. On the day of the assay, pellets were thawed on ice and resuspended in 1 mL of 20 mM HEPES, pH 7.4, 10 mM MgCl2, 100 mM NaCl using dounce homogenization. Membrane protein concentration is determined by BCA protein assay (Promega, Madison, WI) according to Promega guidelines.
On the day of the assay, serial dilutions of test PAM compounds were brought up in assay buffer (20 mM HEPES, 10 mM MgCl2, 100 mM NaCl) at 4X final assay concentration. […] of membrane homogenates (containing […] of membrane protein) were prepared in assay buffer supplemented with GDP at […] final assay concentration (final assay concentration of GDP is 5 μM for M2 and 0.1 μM for M4) and dispensed into 96 well polypropylene, U-bottom Greiner plates. 25 ml of vehicle or test PAM compound at 4× of final assay concentration diluted in the assay buffer were added to membrane and plates are incubated for 10-15 minutes at room temperature with gentle shaking. Then, […] of EC20 acetylcholine in assay buffer at 4× final assay concentration was added to assay plates (EC20 final assay concentrations was 40 nM for human M4).
Plates were then incubated, with shaking, for an additional 10-15 minutes. […] of 0.4 nM 35S-GTP (Perkin Elmer, Waltham, MA) in assay buffer was added to assay mixtures. The binding reaction is left on the shaker for 1 hour at room temperature. Membranes in assay reactions were then transferred to GF/C filter plates (Unifilter, Perkin Elmer) and washed three times using a FilterMate Harvester (Perkin Elmer) with cold assay buffer containing no GDP. Filter plates were then dried at 40° C. overnight followed by the addition of […] of Beta Plate Scintillation liquid. Plates are top and bottom sealed before being read on TopCount scintillation counter (Perkin Elmer, Waltham, MA).

[2] = target: T2, hM4 receptors (Homo sapiens, UniProt P08173); assay: Human M4 PAM PERK assay (CHO cells, TR-FRET, with EC20 acetylcholine); format: cell-based
T2 construct: expressed in transfected cells; host or cells: CHO cells
T2 sequence (P08173 1-479): T1 sequence (P08173 1-479)
Procedure: (§1) Chinese hamster ovary (CHO) cells expressing either hM4 or rM4 receptors were frozen in assay ready vials (5×10^6 cells/vial) after bulking-up in culture. The day before an assay, vial(s) were thawed and cells seeded in 384 well white proxiplates at 1000/well for hM4 cells and at 2000/well for rM4 cells, in 10 μL of growth media (Hams/F12 with glutamax and 10% FCS) and incubated overnight at 37° C./5% CO2.
(§2) On the following morning, the growth media was removed by ‘flicking out’ over a bin, patting the inverted plate onto tissue, and then replacing with 10 μL of wash media (Hams/F12 with glutamax and 8 mM HEPES, NB: serum free). Then, the wash media was removed in the same way and replaced with 8 μL/well of the serum free media. Plates were then re-incubated for a further 4 hours at 37° C./5% CO2.
(§3) Compounds for testing were solubilized to 10 mM in DMSO and compound addition plates, consisting of ten-point concentration response curves (CRC) in duplicate points (10 μM top concentration, ½ log dilution series), were prepared by acoustic dispensing and the compound management group.
(§4) After the 4-hour incubation in serum free media, a 4 μL aliquot of the 3×compound solution containing an EC20 of acetylcholine (10 nM final concentration) was added to the cell plate using a 384 well plate to plate transfer. Then, the plate lid was replaced, and the cells incubated for 5 mins at 37° C./5% CO2. Following this final incubation, all cellular processes were stopped by the addition of 4 μL/well of lysis and blocking buffer and plates were incubated for 30 minutes at RT on an orbital shaker (gentle setting). Then, a final addition of 4 μL/well of antibody detection mix, containing both the Europium-Cryptate (donor) and d2 (acceptor) tagged detection components, was added followed by a further 2-hour incubation at RT, and then the plate was read using a TR-FRET (time resolved fluorescence resonance energy transfer) based protocol.

[3] = target: T3, rM4 receptors (Rattus norvegicus, UniProt P08485); assay: Rat M4 PAM PERK assay (CHO cells, TR-FRET, with EC20 acetylcholine); format: cell-based
T3 construct: expressed in transfected cells; host or cells: CHO cells
T3 sequence (P08485 1-478): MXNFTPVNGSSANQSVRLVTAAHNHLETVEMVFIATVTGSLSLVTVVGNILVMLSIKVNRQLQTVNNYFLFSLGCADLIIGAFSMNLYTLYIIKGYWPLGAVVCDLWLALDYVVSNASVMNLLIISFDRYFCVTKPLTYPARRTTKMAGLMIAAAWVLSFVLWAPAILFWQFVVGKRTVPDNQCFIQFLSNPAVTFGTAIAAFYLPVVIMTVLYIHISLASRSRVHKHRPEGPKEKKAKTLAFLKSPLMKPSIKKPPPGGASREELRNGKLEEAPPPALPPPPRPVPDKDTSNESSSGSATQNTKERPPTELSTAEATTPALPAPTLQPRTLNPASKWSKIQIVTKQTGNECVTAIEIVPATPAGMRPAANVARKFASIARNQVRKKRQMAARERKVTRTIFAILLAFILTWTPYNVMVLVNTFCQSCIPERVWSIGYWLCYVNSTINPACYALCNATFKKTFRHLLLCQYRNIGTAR
Procedure: as §1, §2, §3, §4

EC50 [1] | EC50 [2] | EC50 [3] | Compound
> 1000 nM | 200 to 1000 nM | > 1000 nM | COc1cc(N2CC(CC(=O)N3Cc4c(C(F)(F)F)cc(=O)n(C)c4C3)C2)ccn1 [Compound I-92]
> 1000 nM | > 1000 nM | – | Cc1cc(=O)n(C)c2c1CN(C(=O)C(C)(C)C1CN(c3ccnc(C(F)(F)F)c3)C1)C2 [Compound I-41, 1,4-Dimethyl-6-(2-methyl-2-(1-(2-(trifluoromethyl)pyridin-4-yl)azetidin-3-yl)propanoyl)-1,5,6,7-tetrahydro-2H-pyrrolo[3,4-b]pyridin-2-one]
– | < 50 nM | 50 to 200 nM | Cc1c2c(n(C)c(=O)c1F)CN(C(=O)CC1CN(c3ccnc(C(F)(F)F)c3)C1)C2 [Compound I-84, 3-Fluoro-1,4-dimethyl-6-(2-(1-(2-(trifluoromethyl)pyridin-4-yl)azetidin-3-yl)acetyl)-1,5,6,7-tetrahydro-2H-pyrrolo[3,4-b]pyridin-2-one]
– | 200 to 1000 nM | 50 to 200 nM | Cc1c2c(n(C)c(=O)c1C)CN(C(=O)CC1CN(c3cnc(C(F)(F)F)cn3)C1)C2 [Compound I-50]
– | < 50 nM | 200 to 1000 nM | COc1c2c(n(C)c(=O)c1C)CN(C(=O)CC1CN(c3ccnc(C(F)(F)F)c3)C1)C2 [Compound I-97, 4-Methoxy-1,3-dimethyl-6-(2-(1-(2-(trifluoromethyl)pyridin-4-yl)azetidin-3-yl)acetyl)-1,5,6,7-tetrahydro-2H-pyrrolo[3,4-b]pyridin-2-one]
– | < 50 nM | 50 to 200 nM | Cc1c2c(n(C)c(=O)c1C)CN(C(=O)CC1CN(c3ccc(C4CC4)c(F)c3)C1)C2 [Compound I-53]
– | < 50 nM | 200 to 1000 nM | COc1cc(N2CC(CC(=O)N3Cc4c(C)c(Cl)c(=O)n(C)c4C3)C2)ccn1 [Compound I-77]
– | < 50 nM | 50 to 200 nM | Cc1c2c(n(C)c(=O)c1C)CN(C(=O)CC1CN(c3ccc(CC(C)(C)O)c(F)c3)C1)C2 [Compound I-57]
– | 50 to 200 nM | 50 to 200 nM | Cc1c2c(n(C)c(=O)c1C)CN(C(=O)CC1CN(c3ccc(OC(F)(F)F)cc3)C1)C2 [Compound I-52]
– | 200 to 1000 nM | 200 to 1000 nM | Cc1c2c(n(C)c(=O)c1F)CN(C(=O)CC1CN(c3cccc(C(F)(F)F)c3F)C1)C2 [Compound I-86]
– | 50 to 200 nM | > 1000 nM | CCc1c(C)c2c(n(C)c1=O)CN(C(=O)CC1CN(c3ccnc(C(F)(F)F)c3)C1)C2 [Compound I-107, 3-Ethyl-1,4-dimethyl-6-(2-(1-(2-(trifluoromethyl)pyridin-4-yl)azetidin-3-yl)acetyl)-1,5,6,7-tetrahydro-2H-pyrrolo[3,4-b]pyridin-2-one]
– | < 50 nM | 200 to 1000 nM | Cc1cc(=O)n(C)c2c1CN(C(=O)CC1CN(c3ccccn3)C1)C2 [Compound I-9]
– | 50 to 200 nM | 200 to 1000 nM | Cc1cc(=O)n(C)c2c1CN(C(=O)CC1CN(c3cnnc(C4CC4)c3)C1)C2 [Compound I-38, 6-(2-(1-(6-Cyclopropylpyridazin-4-yl)azetidin-3-yl)acetyl)-1,4-dimethyl-1,5,6,7-tetrahydro-2H-pyrrolo[3,4-b]pyridin-2-one]
– | 50 to 200 nM | 200 to 1000 nM | Cc1cc(=O)n(C)c2c1CN(C(=O)CC1CN(c3ccc(F)c(F)c3)C1)C2 [Compound I-32]
– | < 50 nM | > 1000 nM | COc1cncc(N2CC(CC(=O)N3Cc4c(C)c(Cl)c(=O)n(C)c4C3)C2)c1 [Compound I-75]
– | 50 to 200 nM | 200 to 1000 nM | Cc1c2c(n(C)c(=O)c1Cl)CN(C(=O)CC1CN(c3ccccc3C(F)(F)F)C1)C2 [Compound I-74]
– | 50 to 200 nM | 50 to 200 nM | Cc1c2c(n(CC(F)(F)F)c(=O)c1Cl)CN(C(=O)CC1CN(c3cccnc3)C1)C2 [Compound I-93, 3-Chloro-4-methyl-6-(2-(1-(pyridin-3-yl)azetidin-3-yl)acetyl)-1-(2,2,2-trifluoroethyl)-1,5,6,7-tetrahydro-2H-pyrrolo[3,4-b]pyridin-2-one]
– | < 50 nM | 200 to 1000 nM | Cc1cc(=O)n(C)c2c1CN(C(=O)CC1CN(c3ccnc(C(F)(F)F)c3)C1)C2 [Compound I-1, 1,4-Dimethyl-6-(2-(1-(2-(trifluoromethyl)pyridin-4-yl)azetidin-3-yl)acetyl)-1,5,6,7-tetrahydro-2H-pyrrolo[3,4-b]pyridin-2-one]
– | < 50 nM | 50 to 200 nM | Cc1cc(=O)n(C)c2c1C(C)N(C(=O)CC1CN(c3ccnc(C(F)(F)F)c3)C1)C2 (stereo not drawn) [Compound I-114]
– | 200 to 1000 nM | 200 to 1000 nM | Cc1cc(=O)n(CC2CC2)c2c1CN(C(=O)CC1CN(c3ccnc(C(F)(F)F)c3)C1)C2 [Compound I-101, 1-(Cyclopropylmethyl)-4-methyl-6-(2-(1-(2-(trifluoromethyl)pyridin-4-yl)azetidin-3-yl)acetyl)-1,5,6,7-tetrahydro-2H-pyrrolo[3,4-b]pyridin-2-one]
– | 50 to 200 nM | 50 to 200 nM | Cc1c2c(n(C)c(=O)c1C)CN(C(=O)CC1CN(c3ccc(F)c(C(F)(F)F)c3)C1)C2 [Compound I-49]

Compound | EC50 [1] | EC50 [2] | EC50 [3]
Cc1cc(=O)n(C)c2c1CN(C(=O)CC1CN(c3cc(C4CC4)c(C#N)c(C(F)(F)F)c3)C1)C2 [Compound I-40, 2-Cyclopropyl-4-(3-(2-(1,4-dimethyl-2-oxo-1,2,5,7-tetrahydro-6H-pyrrolo[3,4-b]pyridin-6-yl)-2-oxoethyl)azetidin-1-yl)-6-(trifluoromethyl)benzonitrile] | – | 200 to 1000 nM | 200 to 1000 nM
